Format in all cases: cell-based
Data set [1] deals with Respiratory syncytial virus recombinant with luciferase (RSV-Luc5) in NHBE cells. Kind of data set: NHBE RSV-Luc5 384-well assay (EC50 RSVFLUC NHBE-384, Example U). As to conditions: human respiratory syncytial virus, 72 h, read-out: RSV FLuc NHBE 384 EC50 (v2) (nM) (per Ex. U). Put shortly:
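Passage-2 NHBE cells (5,000/well) on pre-spotted compounds, 10-point 1:3 series, infected with RSV-Luc5 at MOI 1 and incubated 3 days at 37° C. Replication read by One-Glo luminescence, normalized to remdesivir (0%) and DMSO (100%); EC50 = concentration reducing replication by 50%, by non-linear regression.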

Data set [2] concerns Human Rhinovirus 14 (HRV14) in H1-HeLa cells. Kind of data set: H1-HeLa HRV-CTG EC50, HRV14 (Example Z). The conditions noted are these: Rhinovirus B, HRV14, 96 h, MOI 1.0, 4 days, Celltiter-Glo, read-out: HRV14 HELA EC50 (nM) (per Ex. Z). Put shortly: (§1)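 H1-HeLa cells (5,000/well) in DMEM with 2% FBS were infected with HRV1B, HRV14 or HRV16 at MOI 0.5, 1.0 and 0.25, respectively, with 10-point 1:3 compound dilutions. After 4 days at 37 °C, viability was read by CellTiter-Glo luminescence. EC50 was the concentration reducing viral replication by 50%, normalized to rupintrivir and DMSO controls.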
On the technique in general: ATP-based viability assays read luminescence as a measure of living cells.

Data set [3] concerns Human Rhinovirus 1B (HRV1B) in H1-HeLa cells. Kind of data set: H1-HeLa HRV-CTG EC50, HRV1B (Example Z). The conditions noted are these: Rhinovirus A, 96 h, MOI 0.5, 4 days, Celltiter-Glo, read-out: HRV 1B HELA EC50 (nM) (per Ex. Z). Put shortly:
as §1

A short description of data set [4]: RSV NHBE CC50 384 V2 (per Ex. U). The conditions noted are these: human.
Data set [5] in a line: RSV HEP2-CC50-384-V2 (per Ex. V). The conditions noted are these: human.

As a reminder, the EC50 is the concentration giving half of the maximal effect. By CC50 is commonly meant the concentration giving 50% cytotoxicity. As for `CCCCCCCCCCCCCCCCCOC[C@H](COP(=O)(O)OC[C@@]1(C#N)O[C@@H](c2ccc3c(N)ncnn23)[C@H](O)[C@@H]1O)OCc1cc(F)cc(C#N)c1` [Compound 53, ((2R,3S,4R,5S)-5-(4-aminopyrrolo[2,1-f][1,2,4]triazin-7-yl)-2-cyano-3,4-dihydroxytetrahydrofuran-2-yl)methyl ((R)-2-((3-cyano-5-fluorobenzyl)oxy)-3-(heptadecyloxy)propyl) hydrogen phosphate], the results for the EC50 in data set [1], in data set [2] and in data set [3] were 22 nM, 35 nM and 34 nM, respectively. Moreover, the CC50 at 3 days is 2820 nM in data set [4] and 32100 nM in data set [5].

Turning to `CCCCCCCCCCCCCCCCCCOC[C@H](COP(=O)(O)OC[C@@]1(C#N)O[C@@H](c2ccc3c(N)ncnn23)[C@H](O)[C@@H]1O)OCc1cccc(C#N)n1` [Compound 68, ((2R,3S,4R)-5-(4-aminopyrrolo[2,1-f][1,2,4]triazin-7-yl)-2-cyano-3,4-dihydroxytetrahydrofuran-2-yl)methyl ((R)-2-((6-cyanopyridin-2-yl)methoxy)-3-(octadecyloxy)propyl) hydrogen phosphate], the EC50 was 9 nM in data set [1], 35 nM in data set [2] and 12 nM in data set [3]. Besides, the figures for the half-maximal cytotoxic concentration (CC50) at 3 days in data set [4] and in data set [5] were 2060 nM and 42800 nM, respectively.

Take `CCCCCCCCCCCCCCOC[C@H](COP(=O)(O)OC[C@@]1(C#N)O[C@@H](c2ccc3c(N)ncnn23)[C@H](O)[C@@H]1O)Oc1cc(C#N)ccn1` [Compound 69, ((2R,3S,4R)-5-(4-aminopyrrolo[2,1-f][1,2,4]triazin-7-yl)-2-cyano-3,4-dihydroxytetrahydrofuran-2-yl)methyl ((R)-2-((4-cyanopyridin-2-yl)oxy)-3-(tetradecyloxy)propyl) hydrogen phosphate]: the EC50 in data set [1] came to 32 nM; in data set [2] it was 106 nM; in data set [3] it was 116 nM. The CC50 at 3 days in data set [4] was 3290 nM; in data set [5], over 50000 nM.

As to `CCCCCCCCCCCCCCCCCCCC[C@@H](COP(=O)(O)OC[C@@]1(C#N)O[C@@H](c2ccc3c(N)ncnn23)[C@H](O)[C@@H]1O)OCc1cc(F)cc(C#N)c1` [Compound 70, ((2R,3S,4R)-5-(4-aminopyrrolo[2,1-f][1,2,4]triazin-7-yl)-2-cyano-3,4-dihydroxytetrahydrofuran-2-yl)methyl ((S)-2-((3-cyano-5-fluorobenzyl)oxy)docosyl) hydrogen phosphate], the EC50 stood at 165 nM in data set [1], 162 nM in data set [2] and 84 nM in data set [3]. The CC50 at 3 days was 3950 nM in data set [4] and 43500 nM in data set [5].

Turning to `CCCCCCCCCCCCCCCCCCOC[C@@H](COP(=O)(O)OC[C@@]1(C#N)O[C@@H](c2ccc3c(N)ncnn23)[C@H](O)[C@@H]1O)Oc1ccc(C#N)nc1` [Compound 72, ((2R,3S,4R,5S)-5-(4-aminopyrrolo[2,1-f][1,2,4]triazin-7-yl)-2-cyano-3,4-dihydroxytetrahydrofuran-2-yl)methyl ((S)-2-((6-cyanopyridin-3-yl)oxy)-3-(octadecyloxy)propyl) hydrogen phosphate], the EC50 in data set [1] was 4 nM; in data set [2] it was 3 nM; in data set [3], 3 nM. Further, the figures for the CC50 at 3 days in data set [4] and in data set [5] were 1610 nM and over 49900 nM, respectively.

Consider `CCCCCCCCCCCCCCCCCCOC[C@H](COP(=O)(O)OC[C@@]1(C#N)O[C@@H](c2ccc3c(N)ncnn23)[C@H](O)[C@@H]1O)OCc1ccc(C#N)cc1OC` [Compound 73, ((2R,3S,4R)-5-(4-aminopyrrolo[2,1-f][1,2,4]triazin-7-yl)-2-cyano-3,4-dihydroxytetrahydrofuran-2-yl)methyl ((R)-2-((4-cyano-2-methoxybenzyl)oxy)-3-(octadecyloxy)propyl) hydrogen phosphate], for which the concentration for a half-maximal effect (EC50) in data set [1] came to 10 nM; in data set [2] it was 26 nM; in data set [3], 12 nM. The CC50 at 3 days in data set [4] was 3820 nM; in data set [5], over 47000 nM.

The values above are taken from patent publication US20250034182A1, “PHOSPHOLIPID COMPOUNDS AND METHODS OF MAKING AND USING THE SAME” (priority 2021, published 2025).
